What was measured:
[1] = system: Paraventricular neurons; test: Reactive oxygen species production (DHE/ethidium fluorescence) in neurons challenged with aldosterone; type: cell-based, SD rats; details: mean±SE
Protocol: Paraventricular neurons were isolated from 22 day old female SD rats, dissociated and cultured on round coverslips and maintained in HBSS media for at least 48 hours prior to visualization by confocal microscopy. All cells were pre-incubated in 10 nM ALDO for 48 hours and then 1.0 μM Ang-(1-7) or 1.0 μM Ang-(1-7)+10.0 μM […] for 2 hours prior to testing with acute 1.0 μM Aldo. To measure ROS, changes in the ethidium fluorescence were measured which is directly proportional to the oxidation of dihydroethidium (DHE) by ROS. The cells were loaded with DHE (20 μM) added to the cell culture media for 1 h and then placed in a chamber for microscopic visualization of fluorescence. One-way ANOVAs for the experimental groups response to acute Aldo was determined. After establishing a significant ANOVA, post-hoc analyses were performed with Tukey multiple comparison tests between pairs of mean change scores. All data are expressed as means±SE. Statistical significance was set at P<0.05. Perfusion with 1.0 μM ALDO increased ROS (D=113.4+28%) in the PVN neurons. […] Pre-incubation in Ang-(1-7)+[…], restored the ALDO increase in ROS (Delta=105.9+9%). Change in ROS production was standardized relative to control state prior to ALDO treatment during ACSF incubation. ANOVA followed by Tukey's post hoc test was used for statistical comparisons between control and ALDO treatment. […]

[2] = system: CHF mice; test: Ejection fraction by echocardiography in CHF mice; type: in vivo; details: systemic treatment 50 mcg/kg/hr subcutaneously
Protocol: Myocardial infarction and subsequent CHF was induced by ligation of the left coronary artery. By week 4 and week 8 post MI, CHF mice (n=15) had approximately 50 and 70% decline in ejection fraction as measured by echocardiography. For the object recognition SOR test at 8 weeks post MI, discrimination ratios were calculated from the time spent exploring the novel versus familiar object during the test phase. […] At 8 weeks post MI, a subgroup of CHF mice (n=6) and controls (n=4) were given 50 mcg/kg/hr Angiotensin (1-7) or saline subcutaneously for 4 weeks and then cognitive function was retested.
(§1) In addition, the invention provides a preclinical animal model of cardiovascular disease and congestive heart failure induced cognitive dysfunction. A total of 26, male C57B1/6J mice were randomly assigned to the control group or cardiovascular disease and congestive heart failure group. Myocardial infarction was induced by ligation of the left coronary artery. By week 4 and week 8 post MI, cardiovascular disease and congestive heart failure mice (n=15) had approximately 50 and 70% decline in ejection fraction as measured by echocardiography. Mice were tested for changes in spatial learning memory via the Morris water task and object recognition via the standard spontaneous object recognition (SOR) task at 4 and 8 weeks post MI. […]

[3] = system: CHF mice; test: Spontaneous (novel) object recognition (SOR) test in mice with congestive heart failure after myocardial infarction; type: in vivo; details: CHF mice (n=6), 50 mcg/kg/hr subcutaneously from 8 weeks post MI, after 3 weeks of treatment; controls +0.25±0.2, CHF+saline −0.21±0.1
Protocol: Mice were 12 weeks post MI or sham surgery. Six mice were MI+Ang(1-7); three mice were MI+saline; and four mice were Sham+Ang (1-7). Alzet pumps with either Ang(1-7) or saline were implanted sq 3 weeks prior to NOR test. Novel object recognition test was performed 3 weeks post pump implant. Data shown are 1st 2 min of “test phase” DRatio=(t novel−t familiar)/(t novel+t familiar). A positive score indicates more time spent with the novel object, a negative score indicates more time spent with the familiar object, and a zero score indicates a null preference. *=p<0.05, #=p<0.05. ANOVA+posthoc Turkey test.
Myocardial infarction and subsequent CHF was induced by ligation of the left coronary artery. By week 4 and week 8 post MI, CHF mice (n=15) had approximately 50 and 70% decline in ejection fraction as measured by echocardiography. For the object recognition SOR test at 8 weeks post MI, discrimination ratios were calculated from the time spent exploring the novel versus familiar object during the test phase. […]
In addition, the invention provides a preclinical animal model of cardiovascular disease and congestive heart failure induced cognitive dysfunction. […] By week 4 and week 8 post MI, cardiovascular disease and congestive heart failure mice (n=15) had approximately 50 and 70% decline in ejection fraction as measured by echocardiography. […]

[4] = system: CHF mice; test: Morris water maze task (spatial memory) in mice with congestive heart failure after myocardial infarction; type: in vivo; details: 50 mcg/kg/hr subcutaneously for 4 weeks from 8 weeks post MI, first day of testing
Protocol: Prior to MI, the controls and CHF mice groups performed similarly on the Morris water task. Myocardial infarction and subsequent CHF was induced by ligation of the left coronary artery. By week 4 and week 8 post MI, CHF mice had approximately 50 and 70% decline in ejection fraction as measured by echocardiography. […] Animals were tested over 4 days with 6 spatial trials per day.
as §1, with “MI. At 8 weeks post MI, a subgroup of cardiovascular disease and congestive heart failure mice (n=6) and the control mice (n=4) were given 50 mcg/kg/hr Angiotensin (1-7) or saline subcutaneously for 4 weeks and then cognitive function was retested.” for “MI.”

Compound	Change in ROS (D) relative to control state prior to ALDO treatment ([1]; PVN neurons, perfusion with 1.0 μM ALDO, no Ang-(1-7) pre-incubation)	Ejection fraction [2]	Change in ROS (D) on ALDO, relative to control state prior to ALDO treatment ([1]; PVN neurons pre-incubated 2 hours in 1.0 μM Ang-(1-7), then acute 1.0 μM ALDO)	SOR discrimination ratio [3]	Performance in Morris water maze task after treatment [4]
C[C@]12CCC(=O)C=C1CC[C@@H]1[C@@H]2[C@@H](O)C[C@]2(C=O)[C@@H](C(=O)CO)CC[C@@H]12 [ALDO, Aldosterone, reference compound]	113.4+28%	–	–	–	–
angiotensin-(1-7) (DRVYIHP; Angiotensin 1-7; UniProt P01019 25-31, looked up) [Ang-(1-7), endogenous peptide derived from Angiotensin II via ACE2]	–	not significantly impacted	6.4+27%	+0.43±0.1	significant improvement on object recognition memory on the first day of testing

From patent publication US20190134145A1, “METHOD FOR TREATING COGNITIVE DYSFUNCTION” (ARIZONA BOARD OF REGENTS ON BEHALF OF THE UNIVERSITY OF …, priority 2013, published 2019)
